In US20220370484A1, “NOVEL USE OF NICOTINAMIDE MONONUCLEOTIDE (NMN) AND NICOTINAMIDE RIBOSIDE (NR)” (Senju Pharmaceutical Co., Ltd., priority 2019, published 2022):

Assays:
Format in all cases: in vivo, mouse
meibomian gland tissue = assay: Lipid stained tissue observation (meibomian gland volume evaluation), whole mount Herxheimer's staining; details: 1.75 year old WT mice, 5% eye drop (5 μL/eye, 4 times/day, only right eye), 3 months, vs Vehicle (phosphate buffered saline)
Procedure: Meibomian gland tissue in mice was stained in accordance with the following protocol.
As a preparation method of 100 mL of staining solution, a bottle of stock solution prepared by dissolving Sudan IV to saturate in 100% ethanol was left standing in advance, and 70 mL of as much of the supernatant, 20 mL of 10% NaOH, and 10 mL of ultrapure water were mixed, tumbled for 5 minutes, and centrifuged to allow powder to precipitate. The supernatant was filtered with a 0.45 μm filter and used as a staining solution.
The cervical vertebrae of mice was dislocated, and skin of the head including meibomian glands was sampled. The sample was immersed in 4% paraformaldehyde while keeping the sample flat with a drawing pin, and immobilized using a rotator at 4° C. for 24 hours. The periphery of meibomian glands was trimmed. The meibomian glands were immersed in 50% ethanol by using a rotator at room temperature for 10 minutes, then immersed for 20 minutes in 70% ethanol, and immersed in a staining solution using a rotator at room temperature for 24 hours in a falcon tube. The meibomian glands were then immersed for 10 minutes in 70% ethanol, and washing was repeated several times to confirm that the meibomian glands were stained well. The meibomian glands were immersed for 24 hours in amino alcohol in glycerin prepared by mixing 3.75 mL of 80% amino alcohol with 8.25 mL glycerin. […]

[1] = tested on: meibomian gland basal cells; assay: Cell proliferation assay through BrdU incorporation staining after eye drop instillation; details: 1.5 year old WT mice, 5% eye drop (5 μL/eye, 6 times/day, only right eye), 2 weeks, vs Vehicle (phosphate buffered saline)
Procedure: [table] BrdU (100 mg/kg body weight, Sigma-Aldrich) was intraperitoneally injected 30 minutes prior to harvesting eyelid tissue from a mouse. An eyelid comprising meibomian glands was immobilized with 4% PFA and embedded in paraffin. Antigens were activated by pressurizing a 5 μm thick segment for 2.5 minutes in 10 mM sodium citrate buffer (pH 6.0). After incubating the segment for 24 hours at 4° C. by using an anti-BrdU antibody (1:1000 dilution; Rockland Inc.), the immune response was made visible with 3,3′-diaminobenzidine (DAB) using secondary antibody Envision+ System—HRP Labelled Polymer Anti-Rabbit (Dako). For each tissue segment, BrdU positive cells in the basal cell layer of a meibomian gland were counted on a digital microscope picture captured at 20× magnification. The length of the outer circumference of a meibomian gland acinus was measured with ImageJ software, and the total BrdU positive cell count was normalized with the length of the outer circumference. The BrdU positive cells were counted by using 16 segments per individual.

[2] = tested on: lipid components in meibomian glands; assay: Lipid analysis of meibomian glands after eye drop instillation (APCI); details: 1.75 year old WT mice, eye drop instillation 3 months as Example 3, compared to Vehicle (phosphate buffered saline)
Procedure: (1) The Eye Drop Instillation Experiment is Performed in the Same Manner as Example 3. Meibomian glands are harvested from an eyelid of a euthanized mouse. Two meibomian glands harvested from one of the eyes of each animal are each placed in a glass vial containing 1 mL of chloroform:methanol=2:1 (v/v) solvent mixture for lipid extraction, and lipids are extracted. The extract is relocated into a new vial. The extract can be stored for several months at −20° C. or lower by evaporating the solution under nitrogen. The extract is then dissolved in a suitable solvent, and lipid composition is analyzed by APCI.

Hsd3b6 = assay: Measurement of meibomian gland Hsd3b6 enzymatic activity (steroid synthesis activity) after eye drop instillation; details: 1.5 year old WT mice, 5% eye drop (5 μL/eye, 6 times/day, only right eye), 2 weeks, vs Vehicle (phosphate buffered saline)
Procedure: The meibomian gland Hsd3b6 enzymatic activity in mice was measured in accordance with the following protocol.
Hank's balanced salt solution (HBSS) was bubbled with […] for 1 hour or more, and dispensed in 2 mL tubes at 200 μL each. The lid was closed while filled with […]. HBSS was warmed with a 37° C. water bath. A reaction incubator was warmed to 37° C., and a micro tube mixer was installed therein.
The main power of a flow liquid scintillation counter (Perkin Elmer, Radiomatic 625TR) was turned on, and the main power of HPLC (Waters, 2795 Separations Module) was turned on to perform setup. Mobile phase A was replaced with water, and mobile phase B was replaced with acetonitrile. Once a column (Kanto Chemical, LiChroCART 250-4, LiChrosphere 100RP-18, particle size: 5 μm, 4 mm I.D.×250 mm) was installed, 40% acetonitrile (ACN) (A: 60%, B: 40%) was flown at 0.7 mL/min. The column oven temperature at this time was set to 40° C.
^3H-DHEA was added to 1 mL of 40% ACN contained in a 2 mL tube, and the mixture was tapped. A microtube was set on an HPLC holder, and single administration was selected. The peak of contaminant produced after 22 minutes was not collected. […]

Compound	meibomian gland volume (meibomian gland tissue)	BrdU positive cell count in meibomian gland basal cells [1]	Lipid components in a meibomian gland [2]	Hsd3b6 enzymatic activity in a meibomian gland (Hsd3b6)
NC(=O)c1ccc[n+]([C@@H]2O[C@H](CO)[C@@H](O)[C@H]2O)c1 [NR, Nicotinamide riboside]	significant increase	increased significantly	normalized	–
Nicotinamide mononucleotide [NMN]	significant increase	increased significantly	normalized	increased significantly
